# Publication PMC6260619, “Selective Cytotoxicity of Goniothalamin against Hepatoblastoma HepG2 Cells” (Molecules, 2011)
# Values joined by “and” are separate entries in the source; they are usually repeats but may differ in a detail not shown here. Identical values can stand only once.
# Legend:
# HepG2 cells [1] = assay: MTT cytotoxicity assay, HepG2; format: cell-based, human; conditions: for IC50: read-out: IC50 from MTT
# Procedure: HepG2 and Chang cells were plated at 1 × 10^4 cells/well by adding 200 μL of a 5 × 10^4 cells/mL suspension to each well of a 96-well tissue culture plate. The plate was incubated for a sufficient time to assure attachment and 40% to 60% confluency. […] The last row was left as an untreated control. The plates were incubated at 37 °C, 5% CO2, for 24, 48 and 72 hours, respectively. After incubation with compounds, the media was aspirated off and replaced with fresh media. Then, MTT solution (20 μL) for a total volume of 200 μL was added in every well and incubated for 4 to 6 hours at 37 °C with 5% CO2. After that, MTT-containing medium was removed gently and replaced with DMSO (200 μL per well) to mix the formazan crystals until dissolved. The plates were read on microtiter plate reader at 570 nm. For each compound tested, the IC50 (concentration of drug needed to inhibit cell growth by 50%) is generated from the dose-response curves for each cell line.
# HepG2 cells [2] = assay: LDH leakage assay, HepG2; format: cell-based, human; conditions: for IC50: Homo sapiens, read-out: IC50 from LDH
# Procedure: Measurement of LDH activity is another indicator of cell viability through evaluation of the cell membrane permeability. The enzyme activity is measured externally, as it leaks from dead cells which lose their membrane integrity. LDH leakage detection is based on the loss of NADH due to its oxidation to NAD^+, resulting in the conversion of pyruvate to lactate. Untreated cells should retain LDH in their cells and have minimal loss over the time of the assay. Triton X-100-treated cells that give the maximum loss of LDH were used as the positive control in this assay.
# To determine the effect of goniothalamin on membrane permeability in HepG2 and Chang cell lines, a lactate dehydrogenase (LDH) release assay was used. The cells were seeded in 96-well culture plates at a density of 2 × 10^4 cells/well in 100 μL volume and allowed to grow for 18 hours before treatment. After treatment, the plates were incubated for 24, 48 and 72 hours, respectively. Then, the supernatant (40 μL) was transferred to a new 96 well to determine LDH release and 6% triton X-100 (40 μL) was added to the original plate for determination of total LDH. An aliquot of 0.1 M potassium phosphate buffer (100 μL, pH 7.5) containing 4.6 mM pyruvic acid was mixed to the supernatant using repeated pipetting. Then, 0.1 M potassium phosphate buffer (100 μL, pH 7.5) containing 0.4 mg/mL reduced β-NADH was added to the wells. The kinetic changes were read for 1 min using ELISA microplate reader in absorbance at wavelength 340 nm. This procedure was repeated with 40 μL of the total cell lysate to determine total LDH U/well. A change of 0.001 absorbance units/min is equivalent to 1 U/L of LDH activity. The percentage of LDH release was determined by dividing the LDH released into the media by the total LDH following cell lysis in the same well.
# HepG2 cells [3] = assay: Cell cycle PI analysis by flow cytometry, HepG2; format: cell-based, human
# Procedure: The ability of a substance to affect specific phases of the cell cycle may provide clues as to its mechanism(s) of action. To determine the effects of goniothalamin on the cell cycle, HepG2 cells were treated with IC50 levels of goniothalamin (determined from the MTT assay) for 24, 48 and 72 hours, respectively. The cells were stained with PI and the DNA contents analyzed by flow cytometry.
# (§1) The treated cells were trypsinized and washed with PBS. After centrifugation, the supernatant was removed. Then, 1 × 10^6 cells were harvested and fixed in ice-cold ethanol (70%). The fixed cells were centrifuged at high speed (180 × g) for 10 minutes to adequately pellet down the cells that were suspended in the ethanol. The pellet was washed by the ice-cold PBS and then centrifuged again at 180 × g for 10 minutes. The final pellet was resuspended with 1 mL of RNase and incubated at 37 °C for 30 minutes. At the end of incubation, DNA binding dye PI (1 mg/mL) was added to give a final concentration of 50 µg/mL. The mixture was incubated at room temperature for 10 min in the dark. Data acquisition and analysis were performed in by flow cytometry FACS Calibur flow cytometer (Becton Dickinson, Franklin Lakes, NJ, USA) using CellQuest 3.3 software.
# Chang cells [4] = assay: Cell cycle PI analysis by flow cytometry, Chang; format: cell-based, human
# Procedure: The effect of goniothalamin on the cell cycle distribution of non-malignant Chang cells was also assessed. […] Accordingly, goniothalamin induced a marked apoptosis in a time-dependent manner at IC50 concentrations. As expected, the increase in the apoptotic population was associated with a concomitant enlargement of the pre-phase population, as observed in cell cycle analysis.
# as §1
# Chang cells [5] = assay: Trypan blue dye exclusion viable cell count, Chang; format: cell-based
# Procedure: As supported by MTT and LDH results, goniothalamin inhibited cell proliferation towards HepG2 in a time- and dose-dependent manner as shown in the BrdU incorporation ELISA method. The effects of goniothalamin on HepG2 and Chang cell growth were also analyzed by viable cell counts using trypan blue dye exclusion assay for 24, 48 and 72 hours after treatment with different doses of goniothalamin. […] The ratio between viable cell numbers in goniothalamin-treated cells and control cells was reported as the Viablity Index (VI, Figure 5A and Figure 5B).
# A half mL aliquot of cell suspension (obtained from treated and non-treated HepG2 and Chang cells), was mixed with 0.5 mL of 0.4% trypan blue dye and left for 5 min at room temperature). The cells were counted using the hemacytometer and the percentage of dead cells was determined.
# [6] = HepG2, 24h, at IC50 (goniothalamin 9.2 µM; doxorubicin 2.2 µM)
# [7] = HepG2, 48h, at IC50 (goniothalamin 8.3 µM; doxorubicin 4.3 µM)
# [8] = HepG2, 72h, at IC50 (goniothalamin 4.6 µM; doxorubicin […])
# [9] = 24h, at IC50 (goniothalamin 79.10 µM; doxorubicin 0.83 µM)
# [10] = 48h, at IC50 (goniothalamin 63.75 µM; doxorubicin 0.41 µM)
# [11] = 72h, at IC50 (goniothalamin 35.01 µM; doxorubicin 0.28 µM)
structure (smiles),measurement,setting,value
"O=C1C=CC[C@H](/C=C/c2ccccc2)O1 [Goniothalamin, 5-hydroxy-7-phenylhepta-2,6-dienoic acid lactone]",IC50,"HepG2 cells [1]; HepG2, 72 hours",4.6 µM and 4.63 µM
same,IC50,"HepG2 cells [1]; Homo sapiens, HepG2, 24 h",9.2 µM
same,IC50,"HepG2 cells [1]; Homo sapiens, HepG2, 48 h",8.3 µM
same,selectivity index (SI),"HepG2 cells [1]; IC50 for normal cell line (Chang)/IC50 for cancerous cell line (HepG2), MTT, 72 hours",7.6
same,IC50-GTN / IC50-Doxo,"HepG2 cells [1]; MTT, 72 hours, value fits HepG2 IC50s",4.4
same,death percentage compared to Triton X-100-treated cells,"HepG2 cells [2]; HepG2, 4.6 µM, 72 hours",50%
same,LDH leakage,"HepG2 cells [2]; HepG2, 9.4 µM, 72 hours, relative to Triton X-100 maximum",62%
same,LDH leakage,"HepG2 cells [2]; HepG2, 37.5 µM, 24 hours",60%
same,LDH leakage,"HepG2 cells [2]; HepG2, 37.5 µM, 48 hours",70%
same,LDH leakage,"HepG2 cells [2]; HepG2, 37.5 µM, 72 hours",70%
same,LDH leakage,"HepG2 cells [2]; HepG2, 150 µM, 24 hours",80%
same,LDH leakage,"HepG2 cells [2]; HepG2, 150 µM, 48 hours",86%
same,LDH leakage,"HepG2 cells [2]; HepG2, 150 µM, 72 hours",93%
same,IC50,"HepG2 cells [2]; HepG2, 24 hours",13.4 µM
same,IC50,"HepG2 cells [2]; HepG2, 48 hours",8.29 µM
same,IC50,"HepG2 cells [2]; HepG2, 72 hours",5.2 µM
same,G0/G1,HepG2 cells [3]; [6],68.92 ± 1.27%
same,G2+M,HepG2 cells [3]; [6],5.94 ± 0.22%
same,S,HepG2 cells [3]; [6],7.68 ± 0.12%
same,SubG0/G1,HepG2 cells [3]; [6],17.44 ± 1.67%
same,G0/G1,HepG2 cells [3]; [7],39.71 ± 3.50%
same,G2+M,HepG2 cells [3]; [7],5.67 ± 4.13%
same,S,HepG2 cells [3]; [7],8.03 ± 0.29%
same,SubG0/G1,HepG2 cells [3]; [7],46.59 ± 2.79%
same,G0/G1,HepG2 cells [3]; [8],31.79 ± 5.82%
same,G2+M,HepG2 cells [3]; [8],2.31 ± 4.19%
same,S,HepG2 cells [3]; [8],7.07 ± 0.18%
same,SubG0/G1,HepG2 cells [3]; [8],58.83 ± 2.09%
same,SubG0/G1,"HepG2 cells [3]; HepG2, 72h, at IC50 (goniothalamin 4.6 µM; doxorubicin […]), listed as goniothalamin",59%
same,G0/G1,Chang cells [4]; [9],55.08 ± 3.60%
same,G2+M,Chang cells [4]; [9],14.89 ± 5.53%
same,S,Chang cells [4]; [9],12.65 ± 2.79%
same,SubG0/G1,Chang cells [4]; [9],17.38 ± 7.29%
same,G0/G1,Chang cells [4]; [10],58.68 ± 9.45%
same,G2+M,Chang cells [4]; [10],2.5 ± 5.89%
same,S,Chang cells [4]; [10],5.82 ± 0.16%
same,SubG0/G1,Chang cells [4]; [10],33.00 ± 3.40%
same,G0/G1,Chang cells [4]; [11],11.60 ± 0.07%
same,G2+M,Chang cells [4]; [11],2.5 ± 0.44%
same,S,Chang cells [4]; [11],4.91 ± 0.13%
same,SubG0/G1,Chang cells [4]; [11],80.99 ± 0.64%
same,Viability Index,"Chang cells [5]; at IC50, 72 hours",62 ± 4.36%
same,"cytotoxicity (cell count, trypan blue)",Chang cells [5]; doses comparable to 2.3 µM,no obvious cytotoxicity
